# US6635429B1, “Heterodimeric nuclear receptors proteins, genes encoding same, and usage thereof” (Institut National de la Sante et de la Recherche Medicale, priority 1992, dated 2003)
# How the values were obtained:
# RXRα-ER(C) = target: T1, RXRα-ER(C) (Mus musculus, UniProt P28700, A202E/D171H/D178A/D181Q/G144N/G162A/I142V/INS139MESAKETRY/INS205MKGGIRKDRRGGRMLKHKRQRDDGEGRGEVGSM/K150Y/K170G/K180N/L172N/L183T/L201Y/M203V/N179T/N190K/Q188R/Q198R/R146Y/R169Q/R177P/R187N/R191S/S147A/T167S/T173D/T175M/V168I/Y155W/Y194A/Y197L); test: 3ERE-URA3 reporter transactivation in yeast strain PL3 (OMPdecase activity); assay type: cell-based
# T1 construct: (a.a. 1 to 467), mouse RXRαdn; expressed in transfected cells; host or cells: Saccharomyces cerevisiae PL3 (multicopy YEp10/YEp90, PGK promoter)
# T1 sequence (P28700 with tags, fused parts or gaps INS139MESAKETRY/I142V/G144N/R146Y/S147A/K150Y/Y155W/G162A/T167S/V168I/R169Q/K170G/D171H/L172N/T173D/T175M/R177P/D178A/N179T/K180N/D181Q/L183T/R187N/Q188R/N190K/R191S/Y194A/Y197L/Q198R/L201Y/A202E/M203V/INS205MKGGIRKDRRGGRMLKHKRQRDDGEGRGEVGSM): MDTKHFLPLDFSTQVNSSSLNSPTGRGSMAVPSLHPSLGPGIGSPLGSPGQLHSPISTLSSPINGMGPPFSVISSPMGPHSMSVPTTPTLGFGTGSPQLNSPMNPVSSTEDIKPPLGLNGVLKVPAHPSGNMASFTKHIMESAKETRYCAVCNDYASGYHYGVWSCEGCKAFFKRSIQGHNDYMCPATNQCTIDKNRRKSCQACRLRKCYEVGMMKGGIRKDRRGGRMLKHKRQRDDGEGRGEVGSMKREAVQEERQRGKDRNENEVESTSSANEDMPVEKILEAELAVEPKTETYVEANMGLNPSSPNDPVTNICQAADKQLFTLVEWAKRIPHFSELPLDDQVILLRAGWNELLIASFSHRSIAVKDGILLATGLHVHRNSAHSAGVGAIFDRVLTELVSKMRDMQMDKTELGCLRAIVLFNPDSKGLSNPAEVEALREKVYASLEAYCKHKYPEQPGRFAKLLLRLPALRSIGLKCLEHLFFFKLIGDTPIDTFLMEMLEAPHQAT
# Protocol: (§1) Induction of the reporter was determined by measuring the specific activity of the URA3 gene product OMPdecase (see above).
# Vector without insert was used as a control (“None”).
# [1] = tested on: RARα and RXRα homodimers or heterodimers
# [2] = tested on: None (vector without insert); test: 3ERE-URA3 reporter in yeast strain PL3, vector without insert (control "None"); assay type: cell-based; details: no receptor, yeast PL3, in presence of ligand
# RARα1-ER.CAS = target: T2, RARα1-ER.CAS (Homo sapiens, UniProt P10276, INS60IETQSSSSEEIVPSPPSPPPLPRIYKPCAVCNDYASGYHYGVWSCEGCKAFFKRSIQGHNDYMCPATNQCTIDKNRRKSCQACRLRKCYEVGMSKES)
# T2 sequence (P10276 with tags, fused parts or gaps isoform P10276-3): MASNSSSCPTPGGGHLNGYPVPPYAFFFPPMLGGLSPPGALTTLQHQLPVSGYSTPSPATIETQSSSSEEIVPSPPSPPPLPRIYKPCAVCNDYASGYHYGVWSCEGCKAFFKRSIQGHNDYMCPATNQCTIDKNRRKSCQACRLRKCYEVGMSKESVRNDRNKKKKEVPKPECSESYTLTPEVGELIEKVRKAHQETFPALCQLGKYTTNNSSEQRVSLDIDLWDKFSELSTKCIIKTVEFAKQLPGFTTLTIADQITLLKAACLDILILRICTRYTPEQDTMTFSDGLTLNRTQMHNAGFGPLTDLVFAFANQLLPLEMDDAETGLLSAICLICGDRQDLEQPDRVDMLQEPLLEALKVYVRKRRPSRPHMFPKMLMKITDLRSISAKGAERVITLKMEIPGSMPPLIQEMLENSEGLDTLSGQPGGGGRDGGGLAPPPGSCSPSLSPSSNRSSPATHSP
# Protocol: The 5′ prime flank of each construct contains a mammalian Kozak's sequence sandwiched between the EcoR1 and the translation start codon (5′-[…]-3′). […] PCR and site-directed mutagenesis were used to create RARα(DEF)-ER.CAS, RARα1(AB)-ER(C), RXRα(DE)-ER.CAS and RXRα(AB)-ER(C) as shown in FIG. 10a. All sequences generated by PCR or site directed mutagenesis were verified by sequencing. […] For transactivation experiments, transformants were grown exponentially for approximately 5 generations in selective medium […] uracil in the presence or absence of ligand, in conditions of diffuse light.
# as §1
# Vector without insert was used as a control (“None”). Transactivation data are expressed as OMPdecase activities; the mean values shown in the table were determined from duplicate assays with three individual transformants for each clone. The numbers in parentheses indicate the fold induction over the activity observed for each receptor in the absence of ligand.
# hRAR-γ binding to β-RARE = target: T3, hRAR-γ binding to β-RARE (Homo sapiens, UniProt P13631); test: Gel retardation assay of RAR binding to β-RARE (RBF complementation); details: with HeLa cell NE
# T3 construct: fused to the amino terminal amino acid of full length hRAR-γ; 14 amino acids from the parental vector pEt3a (bacterially expressed preparation only) (N); made in house; host or cells: E. coli BL21 (DE3) plysS; also rVV-infected HeLa cells, rBV-infected Sf9 cells, yeast (ubiquitin fusion) and rabbit reticulocyte lysate
# T3 sequence (P13631 1-454): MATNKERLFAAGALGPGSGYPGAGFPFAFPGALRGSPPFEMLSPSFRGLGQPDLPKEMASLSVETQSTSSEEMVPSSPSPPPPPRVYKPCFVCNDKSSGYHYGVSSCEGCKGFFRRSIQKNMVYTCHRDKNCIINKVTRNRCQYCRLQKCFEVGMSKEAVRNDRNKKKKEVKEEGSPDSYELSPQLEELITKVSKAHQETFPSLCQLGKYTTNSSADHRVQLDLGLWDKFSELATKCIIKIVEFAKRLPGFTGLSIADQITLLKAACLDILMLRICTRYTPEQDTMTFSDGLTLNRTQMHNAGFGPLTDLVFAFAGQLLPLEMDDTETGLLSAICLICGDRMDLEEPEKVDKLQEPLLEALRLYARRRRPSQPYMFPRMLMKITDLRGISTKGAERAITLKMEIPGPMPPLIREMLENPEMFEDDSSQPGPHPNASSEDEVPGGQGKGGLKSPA
# T3 sequence (P28702 1-533 partner): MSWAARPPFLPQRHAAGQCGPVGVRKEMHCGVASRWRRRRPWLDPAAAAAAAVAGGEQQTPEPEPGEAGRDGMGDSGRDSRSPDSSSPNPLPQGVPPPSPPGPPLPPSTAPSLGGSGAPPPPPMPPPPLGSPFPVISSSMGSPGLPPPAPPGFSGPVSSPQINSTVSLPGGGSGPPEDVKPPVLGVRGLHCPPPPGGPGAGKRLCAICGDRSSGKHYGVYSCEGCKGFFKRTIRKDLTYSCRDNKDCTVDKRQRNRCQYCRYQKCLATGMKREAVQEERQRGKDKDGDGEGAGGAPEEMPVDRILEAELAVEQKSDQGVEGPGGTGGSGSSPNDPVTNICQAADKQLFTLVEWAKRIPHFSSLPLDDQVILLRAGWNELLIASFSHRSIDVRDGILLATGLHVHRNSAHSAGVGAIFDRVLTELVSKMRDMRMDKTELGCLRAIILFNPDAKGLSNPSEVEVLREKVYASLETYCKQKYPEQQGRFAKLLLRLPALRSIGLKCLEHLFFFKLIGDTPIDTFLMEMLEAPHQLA
# Protocol: For gel retardation experiments comparing RAR and RXR subtypes and deletion mutants, all proteins were produced by in vitro translation in the presence of [^35S]methionine.
# Purification of rVV- and rBV-expressed hRAR-γ is being described elsewhere (Chen et al., manuscript in preparation). […] All steps were carried out at 4° C. and RBF activity was monitored through all purification steps by a complementation gel retardation assay using bacterially-expressed hRAR-γ as described above. […] The column was washed with equilibration buffer until the A280 of the eluent returned to baseline. […] The column was washed with equilibration buffer until the A280 of the eluent returned to baseline and then with 4 column volumes of buffer A containing 0.45 M ammonium sulfate and 50 mM KCl. The column was then eluted with an 18 ml linear gradient from 0.45 to 0 M ammonium sulfate in buffer A containing 50 mM KCl.
# RARα = target: T4, RARα (Homo sapiens, UniProt P10276); test: URA3 reporter (DR5 etc.) transactivation in yeast strain YPH250 (OMPdecase activity); assay type: cell-based; details: RARα alone, ligand 5×10^−7 M (500 nM)
# T4 construct: The human RARα1 (aa 1-462); expressed in transfected cells; host or cells: Saccharomyces cerevisiae YPH250 (YEp10/YEp90)
# T4 sequence (P10276 1-462): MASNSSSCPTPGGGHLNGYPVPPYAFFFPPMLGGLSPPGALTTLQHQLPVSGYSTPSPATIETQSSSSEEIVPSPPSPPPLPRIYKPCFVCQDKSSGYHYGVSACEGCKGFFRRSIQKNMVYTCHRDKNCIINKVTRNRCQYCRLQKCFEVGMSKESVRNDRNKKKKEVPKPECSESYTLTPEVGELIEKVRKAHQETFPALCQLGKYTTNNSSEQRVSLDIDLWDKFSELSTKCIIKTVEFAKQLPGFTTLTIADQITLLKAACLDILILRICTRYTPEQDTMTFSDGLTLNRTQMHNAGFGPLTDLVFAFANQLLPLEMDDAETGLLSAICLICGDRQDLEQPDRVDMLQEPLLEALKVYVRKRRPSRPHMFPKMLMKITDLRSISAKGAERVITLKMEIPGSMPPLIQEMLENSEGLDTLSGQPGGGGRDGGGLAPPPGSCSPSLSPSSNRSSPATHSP
# [3] = FIG. 10b dose response, FIG. 10c ligand 10^−6 M
smiles,measurement,setting,value
"CC1=C(/C=C/C(C)=C\C=C\C(C)=C\C(=O)O)C(C)(C)CC=C1 [9C-ddRA, 9-cis 3,4-didehydroretinoic acid]",induction of activation by RXRα-ER(C),RXRα-ER(C); [3],induced
"CC1=C(/C=C/C(C)=C\C=C\C(C)=C\C(=O)O)C(C)(C)CCC1 [9C-RA, 9-cis retinoic acid]",effect on binding of homodimers or heterodimers to the probes,[1],did not further stimulate
same,OMP decase activity units,[2],0.02 units
"CC1=C(/C=C/C(C)=C/C=C/C(C)=C/C(=O)O)C(C)(C)CCC1 [T-RA, all-trans retinoic acid]",effect on binding of homodimers or heterodimers to the probes,[1],did not further stimulate
same,OMP decase activity units,"RARα1-ER.CAS; 3ERE-URA3 reporter, yeast PL3, in presence of ligand",14.70 units
same,stimulation of transactivation by RARα1-ER.CAS,RARα1-ER.CAS; [3],comparably stimulated
same,OMP decase activity units,[2],0.02 units
same,effect on formation of the hRAR-γ/β-RARE complex,hRAR-γ binding to β-RARE,In no case was the formation of the complex affected
same,"induction of OMPdecase activity, DR5-URA3 reporter",RARα,approx. 5 fold
"CC1=C(/C=C/C(C)=C/C=C/C(C)=C/C(=O)O)C(C)(C)CC=C1 [T-ddRA, all-trans 3,4-didehydroretinoic acid]",conversion to 9-cis stereoisomers in yeast,RXRα-ER(C); inferred from lack of RXRα-ER(C) activation,not significantly converted
